Measured values from patent US6444787B1, “Method of isolating a peptide which immunologically mimics microbial carbohydrates including group B streptococcal carbohydrates and the use thereof in a vaccine” (Research Development Institute, Inc., priority 1997, dated 2002).
Ends that are not written are not given here.

Test system: anti-GBS antibodies
Assay: ELISA, binding of antibodies to synthetic peptide
Set-up: species or system murine
Settings: peptide coated at 10 μg/ml; FIG. 1 panel A
Procedure: Microtiter wells were coated with peptide at 10 μg/ml and then blocked with 1% BSA. Test antibodies were added to the wells, incubated and washed. Antibody binding was detected with alkaline phosphatase conjugated anti-Ig and then substrate. The values are A405, mean of duplicate or triplicate samples. […] The binding of all antibodies to BSA was<0.1.
Capsular polysaccharide was coated directly onto microtiter wells.

Sequence: FDTGAFDPDWPAC
- Binding of monoclonal antibodies S7 and S9 to peptide: seen only with antibody S9
